Data taken from patent publication US9561237B1, “Bis-(triethylphosphine)platinum(II) complexes with thiones as anti cancer agents” (KING FAHD UNIVERSITY OF PETROLEUM AND MINERALS, priority 2016, dated 2017).

Columns and labels:
Format in all cases: cell-based
[1] = tested on: HeLa (human cervical cancer) cell line; assay: In vitro cytotoxic activity, MTT assay, HeLa; details: for Cytotoxic activity in words (comparison): 6.2 μM to 50 μM; for IC50: 50, 25, 12.5 and 6.25 μM, three independent experiments, read-out: IC50 ± SEM (50% cell growth inhibition), HeLa
Description: (§1) A Pt(II) metal precursor, cisplatin, carboplatin and seven synthesized complexes (1)-(7) were evaluated for their in-vitro cytotoxic activity against HeLa (human cervical cancer), A549 (human lung cancer), MCF-7 (human breast cancer) and HTC15 (human colon cancer) cell lines.
(§2) The cells were seeded at 4×10^3 cells/well in 100 μL DMEM (Dulbecco's Modified Eagle's Medium) containing 10%. FBS (Fetal Bovine Serum) in 96-well tissue culture plate and incubated for 72 h at 37° C., 5% CO2 in air and 90% relative humidity in CO2 incubator. […] The medium of wells was discarded and 100 μL DMEM containing MTT (3-(4,5-dimethylthiazol-2-Yl)-2,5-diphenyltetrazolium bromide) (5 mg/mL) was added to the wells and incubated in CO2 incubator at 37° C. in dark for 4 h. After incubation, a purple colored formazan (artificial chromogenic dye, product of the reduction of water insoluble tetrazolium salts e.g., MMT by dehydrogenases and reductases) in the cells is produced and appeared as dark crystals in the bottom of the wells. The medium of culture was discarded from each well carefully to avoid disruption of monolayer and 100 μL of dimethylsufoxide (DMSO) was added in each well. The solution was thoroughly mixed in the wells to dissolve the formazan crystals which ultimately result into a purple solution. The absorbance of the 96-wells plate was taken at 570 nm with Labsystems Multiskan EX-Enzyme-linked immunosorbent assay (EX-ELISA) reader against a reagent blank. The IC50 values were calculated from three independent experiments by generating an equation of logarithmic trendline of percentage cell viability against concentration of compounds in Microsoft Excel.
(§3) Preliminary anti-cancer activity studies were carried out on seven synthesized Pt(II) complexes (1)-(7), Pt(II) precursor, cisplatin and carboplatin against four cancer cell lines HeLa, A549, HCT15 and MCF-7 (human cancer cell lines) and an MTT assay was used to determine their dose-dependent cytotoxicity after 72 h [U. Bierbach, T. W. Hambly, N. Farrell, Inorg.
(§4) The MTT assay was performed in three independent experiments, each in triplicate. The cancer cell lines used are HeLa (human cervical cancer), A549 (human lung cancer), MCF-7 (human breast cancer) and HCT15 (human colon cancer) cell lines.

[2] = tested on: A549 (human lung cancer) cell line; assay: In vitro cytotoxic activity, MTT assay, A549; details: for Cytotoxic activity in words (comparison): 6.2 μM to 50 μM; for IC50: 50, 25, 12.5 and 6.25 μM, three independent experiments, read-out: IC50 ± SEM (50% cell growth inhibition), A549
Description: as §1, §2, §3, §4

[3] = tested on: MCF-7 (human breast cancer) cell line; assay: In vitro cytotoxic activity, MTT assay, MCF-7; details: for IC50: MCF7, 50, 25, 12.5 and 6.25 μM, three independent experiments, read-out: IC50 ± SEM (50% cell growth inhibition), MCF7; for Cytotoxic activity in words (comparison): MCF-7, 6.2 μM to 50 μM
Description: as §1, §2, §3, §4

[4] = tested on: HCT15 (human colon cancer) cell line; assay: In vitro cytotoxic activity, MTT assay, HCT15; details: for Cytotoxic activity in words (comparison): 6.2 μM to 50 μM; for IC50: 50, 25, 12.5 and 6.25 μM, three independent experiments, read-out: IC50 ± SEM (50% cell growth inhibition), HCT15
Description: as §1, §2, §3, §4

Row | Compound | Cytotoxic activity in words (comparison) [1] | IC50 [1] | Cytotoxic activity in words (comparison) [2] | IC50 [2] | IC50 [3] | Cytotoxic activity in words (comparison) [3] | Cytotoxic activity in words (comparison) [4] | IC50 [4]
1 | CC[PH](CC)(CC)[Pt+2]([SH]=C1N(C)CCN1C)([SH]=C1N(C)CCN1C)[PH](CC)(CC)CC.[Cl-].[Cl-] [Complex (3), cis-bis(triethylphosphine)di(1,3-dimethylimidazolidine-2-thione)platinum(II)] | most effective against all cancer cell lines | 1.5 ± 0.21 µM | most effective against all cancer cell lines | 2.37 ± 0.29 µM | 3.77 ± 0.61 µM | most effective against all cancer cell lines | most effective against all cancer cell lines | 4.23 ± 0.73 µM
2 | CCN1CCCNC1=[SH][Pt+2]([SH]=C1NCCCN1CC)([PH](CC)(CC)CC)[PH](CC)(CC)CC.[Cl-].[Cl-] [Complex (6)] | better than cisplatin and carboplatin | 1.83 ± 0.35 µM | better than cisplatin and carboplatin | 3.6 ± 0.72 µM | 1.23 ± 0.34 µM | highest activity | better than cisplatin and carboplatin | 5.7 ± 0.91 µM
3 | cis-bis(triethylphosphine)di(tetrahydropyrimidine-2(1H)-thione)platinum(II) [Complex (5)] | – | 2.23 ± 0.52 µM | – | 4.5 ± 0.78 µM | 4.73 ± 0.95 µM | – | – | 6.87 ± 1.07 µM
4 | cis-bis(triethylphosphine)di(1-methylimidazolidine-2-thione)platinum(II) [Complex (2)] | – | 1.83 ± 0.26 µM | – | 3.93 ± 0.47 µM | 2.63 ± 0.88 µM | – | – | 8.6 ± 0.93 µM
5 | N.N.[Cl][Pt][Cl] [Cisplatin, cis-diaminedichlorido platinum(II) complex cis-[(NH3)2PtCl2], reference compound] | – | 19.2 ± 1.81 µM | – | 41.7 ± 1.17 µM | 22.4 ± 1.37 µM | – | – | 29.7 ± 2.35 µM
6 | CCP(CC)CC.CCP(CC)CC.[Cl][Pt][Cl] [Pt(II) precursor, cis-Bis(triethylphosphine)platinum(II)chloride, reference compound] | – | 45.8 ± 2.33 µM | – | 55.6 ± 2.53 µM | 59.8 ± 2.15 µM | – | – | 39.1 ± 1.98 µM
7 | CC[PH](CC)(CC)[Pt+2]([SH]=C1NCCCCN1)([SH]=C1NCCCCN1)[PH](CC)(CC)CC.[Cl-].[Cl-] [Complex (7), cis-bis(triethylphosphine)di(1,3-diazepane-thione)platinum(II)] | – | 17.3 ± 1.34 µM | – | 27.7 ± 1.48 µM | 22.3 ± 1.35 µM | – | – | 37.1 ± 1.86 µM
8 | CC[PH](CC)(CC)[Pt+2]([SH]=C1NCCN1)([SH]=C1NCCN1)[PH](CC)(CC)CC.[Cl-].[Cl-] [Complex (1), cis-bis(triethylphosphine)di(imidazolidine-2-thione)platinum(II)] | – | 1.4 ± 0.29 µM | – | 3.5 ± 0.74 µM | 4.67 ± 1.05 µM | – | – | 7.03 ± 1.04 µM
9 | CCN1CCN(CC)C1=[SH][Pt+2]([SH]=C1N(CC)CCN1CC)([PH](CC)(CC)CC)[PH](CC)(CC)CC.[Cl-].[Cl-] [Complex (4), cis-bis(triethylphosphine)di(1,3-diethylimidazolidine-2-thione)platinum(II)] | – | 9.9 ± 1.65 µM | – | 12.6 ± 1.09 µM | 13.5 ± 1.36 µM | – | – | 16.1 ± 1.13 µM
10 | N.N.O=C([O-])C1(C(=O)[O-])CCC1.[Pt+2] [Carboplatin, carboplatin, reference compound] | – | 56.5 ± 2.23 µM | – | 71.2 ± 2.84 µM | 55.6 ± 2.53 µM | – | – | 63.9 ± 2.25 µM
